Assay results as given in patent publication US20090131523A1, “Lipid compositions for the treatment and prevention of proliferative diseases and for the reduction of incidences of mutagenesis and carinogenesis” (Enzymotec Ltd., priority 2007, published 2009).

What was measured:
[1] = palmitic acid in yoghurt; Nadathur et al. 1996; cited from earlier work
[2] = system: squamous cell carcinoma (SCC); conditions: Harris et al. 2005; cited from earlier work
[3] = system: tk locus of L5178Y mouse lymphoma cells; format: cell-based; conditions: 10 μg/ml
Text: The MLA assay evaluates the mutagenic potential of the tested oils based on quantitation of forward mutations at the tk locus of L5178Y in mouse lymphoma cells. The mutagenicity of the test agents is indicated by the increase in the number of mutants after treatment. The tk enzyme is responsible for incorporating exogenous thymidine via a salvage pathway, into the cell in the form of thymidine monophosphate. Analogues of thymidine, such as trifluorothymidine (TFT) can also be phosphorylated by tk enzyme, which leads to cell toxicity. Forward mutation at this locus results in a loss of tk activity and subsequent resistance to TFT, which is used as the selective agent to kill wild type cells. Thus the tk mutants are not killed by TFT and are able to survive due to their ability to synthesize […] de novo.
The objective of the MLA assay was to study the inhibitory effect of Fat blend 6 (Table 2) on the incidence of mammalian cell gene mutations. Each group of L5178Y cells was incubated with one of the tested oils, i.e. with Fat blend 6 or with oil containing low palmitic acid (LPO), and the incidence of specific mutations was examined using the MLA assay. The study experiments were performed with a constant concentration of reference mutagen. Additionally, several concentrations of the test items were used. Positive and negative controls were included in the experiment.
Study procedure: 1×10^7 cells/culture (80 cm^2 flasks) were exposed to several concentrations of tested oil in the presence of the mutagen (10 μg/ml MMS) in parallel to the negative and positive controls (Table 6, FIG. 2). Cells were incubated with the tested oil and mutagen for 3-4 hours to induce and increase the efficiency of anti-mutagenesis effect. Following the incubation, the mutagen was removed by centrifugation (400 g, 5 min) and the cells were washed twice. Subsequently the cells were re-suspended in growth medium for an expression period of 4 days. Following expression period, cultures were seeded in selective medium (containing TFT). Cells from each experimental group were seeded in four 96-well plates at a density of 2000 cells/well in selective medium. After an incubation period of 11 days at 37±1° C., 5±0.5% CO2 and 95±5% humidified atmosphere, the number of colony containing/empty wells was scored using microscope. The colonies size and/or morphology were also characterized. The inhibitory effect of the 2 tested oils was evaluated using the following criteria: (a) a decrease of Mutation Frequencies in the presence of tested oil related to the positive control. (b) Decreased occurrence of small colonies (slow growth colonies) indicated by a high large/small colonies ratio was an indication for inhibitory potential clastogenic effects and/or chromosomal aberrations.
The study was conducted based on the Ninth Addendum to OECD Guidelines for Testing of Chemicals, Section 4, No. 476, “In Vitro Mammalian Cell Gene Mutation Test”, adapted 21 Jul. 1997. This type of study was used in Whittaker P, Evaluation of commercial kava extracts and kavalactone standards for mutagenicity and toxicity using the mammalian cell gene mutation assay in L5178Y mouse lymphoma cells, Food Chem. Toxicol. 2007.

For CCCCCCCCCCCCCCCC(=O)O [palmitic acid], the anti-MNNG activity [1] is listed as “exerts anti-N-methyl-N′-nitro-N-nitrosoguanidine (MNNG) activity” and the “association of increasing dietary proportions with squamous cell carcinoma” value [2] is listed as “associated with reduced squamous cell carcinoma (SCC)”.

For CCCCCC/C=C\CCCCCCCC(=O)O [palmitoleic acid], the “association of increasing dietary proportions with squamous cell carcinoma” value [2] is given as “associated with reduced squamous cell carcinoma (SCC)”.

In the case of COS(C)(=O)=O [MMS, methyl methane sulfonate], the “% change in mutants compare to MMS treat” value [3] is reported as 100%, the “Colony Sizing Large/small” value [3] is reported as 1.53 and the “Mutants/10^6 cells” value [3] is reported as 489 per 10^6 cells. The Mutation factor [3] was 12 and the “relative suspension growth (RSG)” value [3] was 65.8%.
